Assay results from US20170121683A1, “ARYL HYDROCARBON RECEPTOR DISRUPTION AND ENHANCEMENT” (priority 2015, published 2017).

What was measured:
[1] = test system: non-adherent hematopoietic fractions of differentiating hESC-derived cells; assay: qRT-PCR of hematopoietic transcriptional regulators; assay type: cell-based, human
Excerpt: FIG. 9A. Non-adherent hematopoietic progenitor cells derived from hESCs differentiated in the presence of SR-1, TCDD, or DMSO controls were harvested at Day 6+5 and seeded at 50,000 cells/dish in a standard methylcellulose colony-forming unit assay (CFU). Colonies were counted for each treatment group following 2 weeks of culture and scored for the following morphological subsets: BFU-E: burst-forming unit-erythroid; CFU-E: colony-forming unit-erythroid; CFU-GM: colony-forming unit-granulocyte, macrophage, CFU-M: colony-forming unit-macrophage; CFU-GEMM: colony-forming unit-granulocyte, erythroid, macrophage, megakaryocyte. n=3, error bars represent SEM of the total number of colonies/50,000 cells seeded, *p<0.05 as assessed with one-way ANOVA+Tukey-Kramer multiple comparisons post-hoc test. FIG. 9B. Non-adherent hematopoietic progenitor cells derived from hESCs differentiated in the presence of SR-1, TCDD, or DMSO controls were harvested at Day 6+3, Day 6+6, and Day 6+9 time points and probed for gene expression by quantitative real-time PCR (qRT-PCR). For each gene, Ct values were normalized to GAPDH at each time point and data is presented as relative fold-change to DMSO treated controls. n=3, error bars represent SEM, *p<0.05, **p<0.01 using student's t-test.
Non-adherent cell fractions were harvested as previously described in the main text. Total RNA was harvested using the Qiashredder tissue homogenizer kit (Qiagen, Valencia, Calif.) with RNAeasy Mini Kit. RNA concentration and purity was assessed using a NanoDrop 2000 (ThermoFisher Scientific) spectrophotometer and subsequently revere transcribed with a SensiFAST cDNA Synthesis Kit (Bioline, Taunton, Mass.). qPCR was performed using the All-in-One qPCR Mix (GeneCopoeia, Rockville, Md.) and cDNA was used at 50 ng/uL per reaction for qRT-PCR using gene specific human primer pairs (Table 1). qPCR reactions were run on an StepOnePlus Real-Time PCR System thermocycler (ThermoFisher Scientific) in either technical duplicate or triplicate. Ct values were normalized to a GAPDH housekeeper for each sample. Data were then normalized relative to controls using the 2̂-(ΔΔCt) method.

[2] = test system: hESC-derived hematopoietic cells; assay: NK cell differentiation from spin-EBs on OP9-DL1, flow cytometry (Example 2); assay type: cell-based, human; details: Days 11+21 and 11+28, 1 μM SR-1 or 10 nM TCDD
Description: FIG. 13A. Schema of hESC differentiation into lymphoid cells as spin-embryoid bodies (spin-EBs). hESCs are made into spin-EBs at Day 0 and cultured in Stage 1 conditions with defined cytokines to promote mesoderm development for 11 days. At Day 11, spin-EBs are transferred onto OP9-DL1 in the presence of NK cell differentiation media (NKDM) to promote lymphoid differentiation. Cells are treated beginning at Day 11+0 with either 1 μM SR-1, 10 nM TCDD, or DMSO vehicle control with media exchanges and/or harvesting performed every week for up to 4 weeks. FIG. 13B. At Day 11, differentiated spin-EBs (photo) are phenotyped for CD34^+CD45^+ expression and transferred to OP9-DL1 stroma in NKDM. Non-adherent hematopoietic cells cultured either in the presence of DMSO, SR-1, or TCDD were assessed for developing NK cell immunophenotype based on CD56^+CD45^+ expression at Days 11+21, and 11+28; representative flow cytometry plots from one differentiation are shown. FIG. 13C. Quantification of fold-change in total percentage of CD56^+CD45^+ cells at both Day 11+21 and Day 11+28 when treated with DMSO, SR-1, or TCDD. SR-1 and TCDD treatments for each differentiation are normalized to DMSO controls. n=3 independent differentiation experiments, error bars represent SEM, *p<0.05 as assessed with two-way ANOVA+Tukey-Kramer multiple comparisons post-hoc test. FIG. 13D. […]

SMILES | expression of GATA1, fold relative to DMSO controls ([1]; Day 6+3) | expression of GATA2, fold relative to DMSO controls ([1]; Day 6+6) | expression of PU.1 ([1]; each time point (Day 6+3, 6+6, 6+9)) | development of NK cells (CD56+CD45+) compared to DMSO treated controls [2] | expression of GATA2, fold relative to DMSO controls ([1]; Day 6+3) | mean GATA2:GATA1 ([1]; Day 6+3, SR-1 treatment) | expression of CMYB ([1]; all time points)
Clc1cc2c(cc1Cl)Oc1cc(Cl)c(Cl)cc1O2 [TCDD, 2,3,7,8-tetrachlorodibenzo-p-dioxin] | 0.31±0.08 fold | 0.37±0.13 fold | reciprocal expression | fewer phenotypic NK cells |  |  | 
CC(C)n1cnc2c(NCCc3ccc(O)cc3)nc(-c3csc4ccccc34)nc21 [SR-1, StemReginin-1] | 2.58±0.40 fold |  |  | increased development of NK cells | 6.85±0.74 fold | 2.67 | significant increase
